Data on 21 compounds can be found in patent US5136090A, “Biphenyl-5,5'-bis-alkanoic acid derivatives, their production and aldose reductase inhibitors containing the same” (Toyo Jozo Kabushiki Kaisha, priority 1990, dated 1992).

Assay [1] addresses T1, partially purified bovine lens aldose reductase (Bos taurus, UniProt P16116).
T1 construct: partially purified bovine lens aldose reductase; from tissue; host or cells: bovine lens
The experiment in a line: Inhibitory activity on aldose reductase enzyme reaction. It is filed as biochemical. Conditions: for inhibition at 0.1 µg/mL: concentration 0.1 μg/ml; for inhibition at 1 µg/mL: concentration 1.0 μg/ml; for inhibition at 0.02 µg/mL: concentration 0.02 μg/ml. As to the method: The preparation of aldose reductase and the determination of its inhibitory action on enzyme reaction activity were carried out pursuant to the procedures disclosed by Haymann et al. in Journal of Biological Chemistry, 240, 877 (1965).
The sample solution to be examined for inhibitory activity was prepared by dissolving a compound of formula (I) according to the present invention in a small amount of methanol and increasing the volume of the resulting methanol solution by diluting it with distilled water up to tenfold volume. A partially purified bovine lens aldose reductase was used for the assay.
To 2.4 ml of a solution of 5×10^-5 M NADPH dissolved in a 2/15M phosphate buffer solution (pH 6.0), 0.4 ml of the enzyme solution (15 m units/ml) and 0.1 ml of the sample solution to be examined were added and the mixture was introduced into a quartz cell in a photoelectric photometer and subjected to pre-incubation at 37° C. for 4 mins. Then, 0.1 ml of a 0.015M D,L-glyceraldehyde solution was added thereto for initiating the enzyme reaction and the decrease in the optical absorption at 340 nm was measured at 37° C. for 4 mins. The inhibitory activity on aldose reductase was calculated by the following equation: [formula] in which A represents the enzyme reaction rate with addition of the inhibitor and B denotes the enzyme reaction rate without addition of the inhibitor.

Assay [2] has as its system Sciatic Nerve. The assay can be described thus: Suppression of sorbitol accumulation in cultured sciatic nerve. The note with it: concentration 1.0 μg/ml, rat sciatic nerve cultured 20 hours with 0.9% glucose; for inhibition at 1 µg/mL: Rattus norvegicus, 20 h. It is filed as cell-based, Wistar rats. How it is done: (§1) Lenses and sciatic nerves extirpated from Wistar rats, male, aged 7 weeks, were washed twice with an aseptic buffer solution consisting of 0.3% trisaminomethane, 0.8% NaCl, 0.038% KCl, 0.025% Na2 HPO4 ·12H2 O, 0.1% glucose and 1.85 ml/l of concentrated HCl.
(§2) The lenses and the sciatic nerves were then preincubated for 30 mins. in a culture medium prepared by adding 2 ml of 7.5% NaHCO3 aseptic solution and 5.5 ml of aseptic calf fetus serum to 100 ml of an aseptic culture medium of 0.98% TC Medium 199 (NISSUI Corp.) containing 0.01% of dihydrostreptomycin and 0.01% of benzylpenicillin. Thereafter, the intrinsic culture was effected in a culture medium prepared by adding each sample solution to be examined and 0.9% of glucose to the abovementioned culture medium and permitting culturing to proceed for 20 hours. The incubation was effected at 37° C. in an atmosphere composed of 95% air and 5% CO2.
(§3) After culturing, the cultured samples of lens and sciatic nerve were removed from the culture medium to filter paper and the weight of each of them was measured after the adherent culture solution had been blown off. Then, each of the cultured samples was homogenized with the addition of 1 ml of a cold 8% HClO4 solution and the homogenized mixture was subjected to centrifugation at 10,000 G for 10 mins., whereby a supernatant was obtained. The resulting precipitate was then homogenized again with addition thereto of 0.5 ml of cold 8% HClO4 solution and the homogenized mixture was again subjected to centrifugation in a similar way as above to obtain a further supernatant. This was combined with the previously obtained supernatant and the resulting solution was neutralized with 2N KOH aq. solution and was supplemented with distilled water to a volume of 5 ml. The precipitate formed by neutralization was separated by centrifugation at 3,000 rpm for 10 mins. and the resulting supernatant was employed as the sample for determining the sorbitol content.
(§4) The determination of the sorbitol content in the lens and in the sciatic nerve was carried out in accordance with the method of Bergmeyer in "Methods of Enzymatic Analysis" edited by H. U. Bergmeyer, pp 1323-1326, Academic Press, New York, 1974 and in accordance with the method of Malaon et al. in "Diabetes" 29, 861-864 (1980).
(§5) To 0.5 ml cf the sample solution for determination of sorbitol content obtained as above, 0.9 ml of 0.1M glycine-KOH buffer solution (pH 9.4) containing 1 mM of NAD^+ and 0.1 ml of a solution of sorbitol dehydrogenase of 20 units/ml were added and the resulting mixture was subjected to incubation at 37° C. for 1 hour.
(§6) The content of sorbitol in each tissue was estimated by assuming the increment of the optical absorption at 340 nm to be proportional to the amount of NADH produced by the reaction for the lens and by detecting the fluorescence with an excitation wavelength of 366 nm and a fluorescence wavelength of 425 nm for the sciatic nerve.
(§7) The activity for suppressing accumulation of sorbitol, i.e. the aldose reductase inhibiting activity, was calculated from the determined sorbitol content by the calculation formula [formula] in which A denotes the content of sorbitol per unit weight of the tissue after cultivation with addition of the inhibitor, B denotes the sorbitol content per unit weight of the tissue after cultivation without addition of the inhibitor and C represents the sorbitol content per unit weight of the tissue after cultivation in the medium without addition of glucose and inhibitor.

In assay [3] the test system is Lens. The experiment in a line: Suppression of sorbitol accumulation in cultured lens. Type of assay: cell-based, Wistar rats. The note with it: rat lens cultured 20 hours with 0.9% glucose; for inhibition at 5 µg/mL: concentration 5 μg/ml; for inhibition at 2.5 µg/mL: concentration 2.5 μg/ml. As to the method:
as §1, §2, §3, §4, §5, §6, §7

For `O=C(O)CCc1ccc(O)c(-c2cc(CCC(=O)O)ccc2OCc2ccccc2)c1` [Example 1, 2-benzyloxy-2'-hydroxy-5,5'-bis (2carboxyethyl) biphenyl], in assay [1], at 0.1 µg/mL the inhibition was 60.8% and testing at 1 µg/mL gave an inhibition of 92.8%. Besides, the inhibition (usually the drop in the measured response relative to a control, in per cent) at 1 µg/mL in assay [2] was determined as 64.6%. In assay [3], the inhibition at 5 µg/mL stood at 69.9%.

In assay [1], `O=C(O)CCc1ccc(O)c(-c2cc(CCC(=O)O)ccc2OCc2ccc(Br)cc2F)c1` [Example 2, 2-(2-fluoro-4-bromobenzyloxy)-2'-hydroxy-5,5'-bis (2-carboxyethyl) biphenyl] gave an inhibition at 0.1 µg/mL of 54% and an inhibition at 1 µg/mL of 89.1%.

In assay [1], `O=C(O)CCc1ccc(O)c(-c2cc(CCC(=O)O)ccc2OCC2CCCCC2)c1` [Example 3, 2-cyclohexylmethoxy-2'-hydroxy-5,5'-bis (2-carboxyethyl) biphenyl] displayed an inhibition at 0.1 µg/mL of 73.6% and an inhibition at 1 µg/mL of 91.9%. In addition, in assay [2], the inhibition at 1 µg/mL was 73.2% and the “Inhibition of sorbitol Accumulation (%) Sciatic Nerve” value worked out at 64.8%. In assay [3], this compound gave an inhibition at 2.5 µg/mL of 44.7% and an inhibition at 5 µg/mL of 85.2%.

In assay [1], `O=C(O)CCc1ccc(O)c(-c2cc(CCC(=O)O)ccc2OCC2CCCCO2)c1` (stereo not shown) [Example 4, 2-(tetrahydro-2H-pyran-2-yl) methoxy-2'-hydroxy-5,5'-bis (2-carboxyethyl) biphenyl] yielded an inhibition at 0.1 µg/mL of 50.4% and an inhibition at 1 µg/mL of 88.2%.

In assay [1], `CCCOc1ccc(CCC(=O)O)cc1-c1cc(CCC(=O)O)ccc1O` [Example 5, 2-propoxy-2'-hydroxy-5,5'-bis (2carboxyethyl) biphenyl] displayed an inhibition at 0.1 µg/mL of 73.6% and an inhibition at 1 µg/mL of 90%. In assay [2], testing at 1 µg/mL gave an inhibition of 73.3% and the “Inhibition of sorbitol Accumulation (%) Sciatic Nerve” value was determined as 73.8%. In assay [3], this compound came in with an inhibition at 2.5 µg/mL of 32.7% and an inhibition at 5 µg/mL of 79.2%.

In assay [1], `CCCCOc1ccc(CCC(=O)O)cc1-c1cc(CCC(=O)O)ccc1O` [Example 6, 2-butoxy-2'-hydroxy-5,5'-bis (2-carboxyethyl) biphenyl] came in with an inhibition at 0.1 µg/mL of 58.6% and an inhibition at 1 µg/mL of 90%.

Turning to `CCCCCOc1ccc(CCC(=O)O)cc1-c1cc(CCC(=O)O)ccc1O` [Example 7, 2-pentyloxy-2'-hydroxy-5,5'-bis (2carboxyethyl) biphenyl], in assay [1], 0.1 µg/mL produced 56.4% inhibition and the inhibition at 1 µg/mL was found to be 90.9%.

In assay [1], `CCCCCCOc1ccc(CCC(=O)O)cc1-c1cc(CCC(=O)O)ccc1O` [Example 8, 2-hexyloxy-2'-hydroxy-5,5'-bis (2carboxyethyl) biphenyl] gave an inhibition at 0.1 µg/mL of 58.6% and an inhibition at 1 µg/mL of 91.9%.

As to `CCCCCCCCCCCOc1ccc(CCC(=O)O)cc1-c1cc(CCC(=O)O)ccc1O` [Example 11, 2-undecyloxy-2'-hydroxy-5,5'-bis (2-carboxyethyl) biphenyl], in assay [1], the inhibition at 0.1 µg/mL was determined as 81.5% and the inhibition at 1 µg/mL amounted to 92.8%. Further, in assay [2], the inhibition at 1 µg/mL is 34.7%.

Turning to `O=C(O)CCCOc1ccc(CCC(=O)O)cc1-c1cc(CCC(=O)O)ccc1O` [Example 13, 2-(3-carboxypropoxy)-2'-hydroxy-5, 5'-bis (2-carboxyethyl) biphenyl], in assay [1], the inhibition at 0.1 µg/mL came out at 60.6% and the inhibition at 1 µg/mL turned out to be 95.2%.

In the case of `O=C(O)CCc1ccc(O)c(-c2cc(CCC(=O)O)ccc2OCCc2ccccc2)c1` [Example 14, 2-phenethyloxy-2'-hydroxy-5, 5'-bis (2-carboxyethyl) biphenyl], in assay [1], the inhibition at 0.1 µg/mL was found to be 52.4% and at 1 µg/mL the inhibition was 90.5%. This compound also had an inhibition at 1 µg/mL in assay [2] of 62.4%.

For the compound `O=C(O)CCc1ccc(O)c(-c2cc(CCC(=O)O)ccc2OC2CCCCC2)c1` [Example 15, 2-cyclohexyloxy-2'-hydroxy-5, 5'-bis (2-carboxyethyl) biphenyl], in assay [1], the inhibition at 0.1 µg/mL was 47.6%. Besides, the inhibition at 1 µg/mL was determined as 89.6% in assay [1] and 43.2% in assay [2].

As to `O=C(O)CCCc1ccc(O)c(-c2cc(CCCC(=O)O)ccc2OCc2ccccc2)c1` [Example 18, 2-benzyloxy-2'-hydroxy-5,5'-bis (3-carboxypropyl) biphenyl], in assay [1], the inhibition at 0.02 µg/mL is 22% and the inhibition at 0.1 µg/mL worked out at 60.6%.

For the compound `O=C(O)CCCc1ccc(O)c(-c2cc(CCCC(=O)O)ccc2OCc2ccc(Br)cc2F)c1` [Example 19, 2-(2-fluoro-4-bromobenzyloxy)-2'-hydroxy-5, 5'-bis (3-carboxypropyl) biphenyl], in assay [1], at 0.02 µg/mL the inhibition was 23.8% and the inhibition at 0.1 µg/mL worked out at 62.6%.

In assay [1], `O=C(O)CCCc1ccc(O)c(-c2cc(CCCC(=O)O)ccc2OCC2CCCCC2)c1` [Example 20, 2-cyclohexylmethoxy-2'-hydroxy-5, 5'-bis (3-carboxypropyl) biphenyl] yielded an inhibition at 0.02 µg/mL of 18.7% and an inhibition at 0.1 µg/mL of 73.1%. This compound registered an inhibition at 1 µg/mL in assay [2] of 51.5%.

Turning to `CCOc1ccc(CCCC(=O)O)cc1-c1cc(CCCC(=O)O)ccc1O` [Example 22, 2-ethoxy-2'-hydroxy-5,5'-bis (3-carboxypropyl) biphenyl], in assay [1], the inhibition at 0.02 µg/mL came out at 27.2% and at 0.1 µg/mL the inhibition was 63.9%.

In assay [1], `CCCCOc1ccc(CCCC(=O)O)cc1-c1cc(CCCC(=O)O)ccc1O` [Example 24, 2-butoxy-2'-hydroxy-5,5'-bis (3-carboxypropyl) biphenyl] yielded an inhibition at 0.02 µg/mL of 25.6% and an inhibition at 0.1 µg/mL of 62.6%.

In assay [1], `CCCCCCCOc1ccc(CCCC(=O)O)cc1-c1cc(CCCC(=O)O)ccc1O` [Example 25, 2-heptyloxy-2'-hydroxy-5,5'-bis (3-carboxypropyl) biphenyl] displayed an inhibition at 0.02 µg/mL of 20.5% and an inhibition at 0.1 µg/mL of 69.2%.

Consider `CCCCCCCCOc1ccc(CCCC(=O)O)cc1-c1cc(CCCC(=O)O)ccc1O` [Example 26, 2-octyloxy-2'-hydroxy-5,5'-bis (3-carboxypropyl) biphenyl], for which, in assay [1], the inhibition at 0.02 µg/mL came out at 35.3% and at 0.1 µg/mL the inhibition was 73.1%. This compound showed an inhibition at 1 µg/mL in assay [2] of 43.3%.

In assay [1], `CC(C)CCOc1ccc(CCCC(=O)O)cc1-c1cc(CCCC(=O)O)ccc1O` [Example 27, 2-isopentyloxy-2'-hydroxy-5, 5'-bis (3-carboxypropyl) biphenyl] yielded an inhibition at 0.02 µg/mL of 23.8% and an inhibition at 0.1 µg/mL of 61.2%.

In assay [1], `O=C(O)CCCc1ccc(O)c(-c2cc(CCCC(=O)O)ccc2OCCCCl)c1` [Example 28, 2-(3-chloropropoxy)-2'-hydroxy-5, 5'-bis (3-carboxypropyl) biphenyl] displayed an inhibition at 0.02 µg/mL of 28.8% and an inhibition at 0.1 µg/mL of 71.7%. In assay [2], this compound registered an inhibition at 1 µg/mL of 69%.
